Measurements published in patent publication US9340600B2 (Indiana University Research and Technology Corporation, priority 2012, dated 2016).
*1 amine or outer side, *2 acyl side, *3 side chain or, on linkers, in order; H or OH if unused. Where a SMILES comes first, the peptide text is derived from it. Side-chain parts run from the residue outwards. [ ]: non-standard residue; d: D form. The star is where a group is joined. γGlu = O=C(O)[C@H](CCC(=O)[*:2])N[*:1]; Palmitoyl = CCCCCCCCCCCCCCCC(=O)*; Nva = CCC[C@H](N)C(=O)O; Aib = CC(C)(N)C(=O)O

Key:
Format in all cases: cell-based
glucagon receptor = target: T1, glucagon receptor (Homo sapiens, UniProt P47871); assay: cAMP induction, firefly luciferase-based reporter assay in HEK293 cells co-transfected with glucagon receptor; settings: for EC50: EC50 at Glucagon Receptor
T1 construct: expressed in transfected cells; host or cells: HEK293
Excerpt: (§1) This example describes an exemplary method of testing the biological activity of the peptides of the present disclosures, which method involves assaying cAMP synthesis.

GLP-1 receptor = target: T2, GLP-1 receptor (Homo sapiens, UniProt P43220); assay: cAMP induction, firefly luciferase-based reporter assay in HEK293 cells co-transfected with GLP-1 receptor; settings: EC50 at GLP-1 Receptor
T2 construct: expressed in transfected cells; host or cells: HEK293
Excerpt: as §1

GIP receptor = target: T3, GIP receptor (Homo sapiens, UniProt P48546); assay: cAMP induction, firefly luciferase-based reporter assay in HEK293 cells co-transfected with GIP receptor; settings: EC50 at GIP Receptor
T3 construct: expressed in transfected cells; host or cells: HEK293
T3 sequence (P48546 22-466): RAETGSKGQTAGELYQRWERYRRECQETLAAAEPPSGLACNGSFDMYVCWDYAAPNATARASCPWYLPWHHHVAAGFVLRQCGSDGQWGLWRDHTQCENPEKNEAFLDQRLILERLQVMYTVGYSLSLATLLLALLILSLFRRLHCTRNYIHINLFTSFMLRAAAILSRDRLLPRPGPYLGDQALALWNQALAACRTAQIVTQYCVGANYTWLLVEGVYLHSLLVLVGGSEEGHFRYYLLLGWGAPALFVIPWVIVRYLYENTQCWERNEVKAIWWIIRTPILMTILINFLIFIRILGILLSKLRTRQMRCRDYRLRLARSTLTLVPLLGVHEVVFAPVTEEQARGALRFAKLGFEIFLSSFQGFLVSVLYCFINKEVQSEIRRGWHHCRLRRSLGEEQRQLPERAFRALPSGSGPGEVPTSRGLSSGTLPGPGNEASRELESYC
Excerpt: as §1

[1] = Table 3, analogs of SEQ ID NO: 18 varying at position 3
[2] = Table 2, analogs of SEQ ID NO: 18 varying at positions 16-21

T1 sequence (P47871 26-477): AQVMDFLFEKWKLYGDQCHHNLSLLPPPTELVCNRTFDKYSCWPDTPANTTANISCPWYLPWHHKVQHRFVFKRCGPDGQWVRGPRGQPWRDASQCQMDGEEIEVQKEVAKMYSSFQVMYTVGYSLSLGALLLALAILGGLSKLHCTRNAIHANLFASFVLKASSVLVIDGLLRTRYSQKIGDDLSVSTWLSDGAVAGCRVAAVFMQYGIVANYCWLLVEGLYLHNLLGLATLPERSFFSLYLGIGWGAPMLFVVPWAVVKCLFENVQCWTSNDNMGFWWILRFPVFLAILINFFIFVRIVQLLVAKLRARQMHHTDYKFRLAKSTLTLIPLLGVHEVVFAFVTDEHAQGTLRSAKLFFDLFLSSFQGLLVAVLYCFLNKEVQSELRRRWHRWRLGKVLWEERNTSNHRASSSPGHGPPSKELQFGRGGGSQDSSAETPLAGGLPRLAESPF
T2 sequence (P43220 24-463): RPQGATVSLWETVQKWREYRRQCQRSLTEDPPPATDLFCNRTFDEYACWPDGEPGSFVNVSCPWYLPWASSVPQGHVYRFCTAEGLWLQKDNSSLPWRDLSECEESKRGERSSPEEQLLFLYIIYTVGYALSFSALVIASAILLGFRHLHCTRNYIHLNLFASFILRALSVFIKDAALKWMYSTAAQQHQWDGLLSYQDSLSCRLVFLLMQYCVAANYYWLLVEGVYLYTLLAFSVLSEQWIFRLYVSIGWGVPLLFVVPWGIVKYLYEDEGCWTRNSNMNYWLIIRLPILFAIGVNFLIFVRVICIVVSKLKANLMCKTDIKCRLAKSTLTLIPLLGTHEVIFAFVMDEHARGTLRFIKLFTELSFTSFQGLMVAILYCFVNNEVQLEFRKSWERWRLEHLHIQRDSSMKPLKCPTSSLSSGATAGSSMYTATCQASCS

Row | SMILES | EC50 (glucagon receptor; [1]) [pM] | EC50 (GLP-1 receptor; [1]) [pM] | EC50 (GIP receptor; [1]) [pM] | EC50 (glucagon receptor; [2]) [pM] | EC50 (GLP-1 receptor; [2]) [pM] | EC50 (GIP receptor; [2]) [pM] | EC50 at Glucagon Receptor (glucagon receptor; [1])
1 | CCCCCCCCCCCCCCCC(=O)N[C@@H](CCC(=O)NCCCC[C@H](NC(=O)[C@H](CC(=O)O)NC(=O)[C@H](CO)NC(=O)[C@@H](NC(=O)[C@H](Cc1ccccc1)NC(=O)[C@@H](NC(=O)CNC(=O)[C@H](CCSC)NC(=O)C(C)(C)NC(=O)[C@@H](N)Cc1c[nH]cn1)[C@@H](C)O)[C@@H](C)O)C(=O)N[C@@H](CO)C(=O)N[C@@H](CCCCN)C(=O)N[C@@H](Cc1ccc(O)cc1)C(=O)N[C@@H](CC(C)C)C(=O)N[C@@H](CCC(=O)O)C(=O)N[C@@H](CCC(=O)O)C(=O)N[C@@H](CCCNC(=N)N)C(=O)N[C@@H](C)C(=O)N[C@@H](C)C(=O)N[C@@H](CCC(N)=O)C(=O)N[C@@H](CCC(=O)O)C(=O)N[C@@H](Cc1ccccc1)C(=O)N[C@H](C(=O)N[C@@H](CCC(N)=O)C(=O)N[C@@H](Cc1c[nH]c2ccccc12)C(=O)N[C@@H](CC(C)C)C(=O)N[C@@H](CC(C)C)C(=O)N[C@@H](CCC(=O)O)C(=O)NCC(=O)NCC(=O)N1CCC[C@H]1C(=O)N[C@@H](CO)C(=O)N[C@@H](CO)C(=O)NCC(=O)N[C@@H](C)C(=O)N1CCC[C@H]1C(=O)N1CCC[C@H]1C(=O)N1CCC[C@H]1C(=O)N[C@@H](CO)C(N)=O)C(C)C)C(=O)O [compound 31] (H-H[Aib]MGTFTSDK([γGlu-Palmitoyl])SKYLEERAAQEFVQWLLEGGPSSGAPPPS-NH2; N-terminus assumed) | 30 | 2 | 5 | – | – | – | –
2 | CCCCCCCCCCCCCCCC(=O)N[C@@H](CCC(=O)NCCCC[C@H](NC(=O)[C@H](CC(=O)O)NC(=O)[C@H](CO)NC(=O)[C@@H](NC(=O)[C@H](Cc1ccccc1)NC(=O)[C@@H](NC(=O)CNC(=O)[C@H](CCC(N)=O)NC(=O)C(C)(C)NC(=O)[C@@H](N)Cc1c[nH]cn1)[C@@H](C)O)[C@@H](C)O)C(=O)N[C@@H](CO)C(=O)N[C@@H](CCCCN)C(=O)N[C@@H](Cc1ccc(O)cc1)C(=O)N[C@@H](CC(C)C)C(=O)N[C@@H](CC(=O)O)C(=O)N[C@@H](Cc1c[nH]cn1)C(=O)N[C@@H](CCCNC(=N)N)C(=O)N[C@@H](C)C(=O)N[C@@H](C)C(=O)NC(C)(C)C(=O)N[C@@H](CCC(=O)O)C(=O)N[C@@H](Cc1ccccc1)C(=O)N[C@H](C(=O)N[C@@H](CCC(N)=O)C(=O)N[C@@H](Cc1c[nH]c2ccccc12)C(=O)N[C@@H](CC(C)C)C(=O)N[C@@H](CC(C)C)C(=O)N[C@@H](CC(=O)O)C(=O)NCC(=O)NCC(=O)N1CCC[C@H]1C(=O)N[C@@H](CO)C(=O)N[C@@H](CO)C(=O)NCC(=O)N[C@@H](C)C(=O)N1CCC[C@H]1C(=O)N1CCC[C@H]1C(=O)N1CCC[C@H]1C(=O)N[C@@H](CO)C(N)=O)C(C)C)C(=O)O [compound 25] (H-H[Aib]QGTFTSDK([γGlu-Palmitoyl])SKYLDHRAA[Aib]EFVQWLLDGGPSSGAPPPS-NH2; N-terminus assumed) | – | – | – | 5 | 4 | 3 | –
3 | CCCCCCCCCCCCCCCC(=O)N[C@@H](CCC(=O)NCCCC[C@H](NC(=O)[C@H](CC(=O)O)NC(=O)[C@H](CO)NC(=O)[C@@H](NC(=O)[C@H](Cc1ccccc1)NC(=O)[C@@H](NC(=O)CNC(=O)[C@@H](NC(=O)C(C)(C)NC(=O)[C@@H](N)Cc1c[nH]cn1)[C@@H](C)CC)[C@@H](C)O)[C@@H](C)O)C(=O)N[C@@H](CO)C(=O)N[C@@H](CCCCN)C(=O)N[C@@H](Cc1ccc(O)cc1)C(=O)N[C@@H](CC(C)C)C(=O)N[C@@H](CCC(=O)O)C(=O)N[C@@H](CCC(=O)O)C(=O)N[C@@H](CCCNC(=N)N)C(=O)N[C@@H](C)C(=O)N[C@@H](C)C(=O)N[C@@H](CCC(N)=O)C(=O)N[C@@H](CCC(=O)O)C(=O)N[C@@H](Cc1ccccc1)C(=O)N[C@H](C(=O)N[C@@H](CCC(N)=O)C(=O)N[C@@H](Cc1c[nH]c2ccccc12)C(=O)N[C@@H](CC(C)C)C(=O)N[C@@H](CC(C)C)C(=O)N[C@@H](CCC(=O)O)C(=O)NCC(=O)NCC(=O)N1CCC[C@H]1C(=O)N[C@@H](CO)C(=O)N[C@@H](CO)C(=O)NCC(=O)N[C@@H](C)C(=O)N1CCC[C@H]1C(=O)N1CCC[C@H]1C(=O)N1CCC[C@H]1C(=O)N[C@@H](CO)C(N)=O)C(C)C)C(=O)O [compound 30] (H-H[Aib]IGTFTSDK([γGlu-Palmitoyl])SKYLEERAAQEFVQWLLEGGPSSGAPPPS-NH2) | – | 250 | 423 | – | – | – | Not active
4 | CCCCCCCCCCCCCCCC(=O)N[C@@H](CCC(=O)NCCCC[C@H](NC(=O)[C@H](CC(=O)O)NC(=O)[C@H](CO)NC(=O)[C@@H](NC(=O)[C@H](Cc1ccccc1)NC(=O)[C@@H](NC(=O)CNC(=O)[C@H](CCC)NC(=O)C(C)(C)NC(=O)[C@@H](N)Cc1c[nH]cn1)[C@@H](C)O)[C@@H](C)O)C(=O)N[C@@H](CO)C(=O)N[C@@H](CCCCN)C(=O)N[C@@H](Cc1ccc(O)cc1)C(=O)N[C@@H](CC(C)C)C(=O)N[C@@H](CCC(=O)O)C(=O)N[C@@H](CCC(=O)O)C(=O)N[C@@H](CCCNC(=N)N)C(=O)N[C@@H](C)C(=O)N[C@@H](C)C(=O)N[C@@H](CCC(N)=O)C(=O)N[C@@H](CCC(=O)O)C(=O)N[C@@H](Cc1ccccc1)C(=O)N[C@H](C(=O)N[C@@H](CCC(N)=O)C(=O)N[C@@H](Cc1c[nH]c2ccccc12)C(=O)N[C@@H](CC(C)C)C(=O)N[C@@H](CC(C)C)C(=O)N[C@@H](CCC(=O)O)C(=O)NCC(=O)NCC(=O)N1CCC[C@H]1C(=O)N[C@@H](CO)C(=O)N[C@@H](CO)C(=O)NCC(=O)N[C@@H](C)C(=O)N1CCC[C@H]1C(=O)N1CCC[C@H]1C(=O)N1CCC[C@H]1C(=O)N[C@@H](CO)C(N)=O)C(C)C)C(=O)O [compound 38] (H-H[Aib][Nva]GTFTSDK([γGlu-Palmitoyl])SKYLEERAAQEFVQWLLEGGPSSGAPPPS-NH2; N-terminus assumed) | 55 | 2 | 4 | – | – | – | –
5 | CCCCCCCCCCCCCCCC(=O)N[C@@H](CCC(=O)NCCCC[C@H](NC(=O)[C@H](CC(=O)O)NC(=O)[C@H](CO)NC(=O)[C@@H](NC(=O)[C@H](Cc1ccccc1)NC(=O)[C@@H](NC(=O)CNC(=O)[C@H](CCC(N)=O)NC(=O)C(C)(C)NC(=O)[C@@H](N)Cc1c[nH]cn1)[C@@H](C)O)[C@@H](C)O)C(=O)N[C@@H](CO)C(=O)N[C@@H](CCCCN)C(=O)N[C@@H](Cc1ccc(O)cc1)C(=O)N[C@@H](CC(C)C)C(=O)N[C@@H](CC(=O)O)C(=O)N[C@@H](CCC(=O)O)C(=O)N[C@@H](CCCNC(=N)N)C(=O)N[C@@H](C)C(=O)NC(C)(C)C(=O)N[C@@H](CCCCN)C(=O)N[C@@H](CCC(=O)O)C(=O)N[C@@H](Cc1ccccc1)C(=O)N[C@H](C(=O)N[C@@H](CCC(N)=O)C(=O)N[C@@H](Cc1c[nH]c2ccccc12)C(=O)N[C@@H](CC(C)C)C(=O)N[C@@H](CC(C)C)C(=O)N[C@@H](CC(=O)O)C(=O)NCC(=O)NCC(=O)N1CCC[C@H]1C(=O)N[C@@H](CO)C(=O)N[C@@H](CO)C(=O)NCC(=O)N[C@@H](C)C(=O)N1CCC[C@H]1C(=O)N1CCC[C@H]1C(=O)N1CCC[C@H]1C(=O)N[C@@H](CO)C(N)=O)C(C)C)C(=O)O [compound 27] (H-H[Aib]QGTFTSDK([γGlu-Palmitoyl])SKYLDERA[Aib]KEFVQWLLDGGPSSGAPPPS-NH2) | – | – | – | 165 | 2 | 4 | –
